Measurements as given in patent US6610709B1, “2-n-substituted or unsubstituted-2-amino-5-methylpiperidine-3,4-diols and processes for the preparation thereof” (Zaidan Hojin Biseibutsu Kagaku Kenkyu Kai, priority 1999, dated 2003).

How the values were obtained:
[1] = molecular target: T1, α-L-fucosidase (from bovine liver) (Bos taurus, UniProt Q2KIM0); experiment: α-fucosidase-inhibitory activity assay (Test Example 1); type: biochemical; conditions: substrate p-nitrophenyl α-L-fucopyranoside, citrate-phosphate buffer pH 6.3, 37° C., 60 minutes, read-out: 50% Inhibiory Concentration (IC50) Enzyme A (converted)
T1 construct: a product of Sigma Company, originated from bovine liver; purchased Sigma; host or cells: bovine liver
T1 sequence (Q2KIM0 23-468): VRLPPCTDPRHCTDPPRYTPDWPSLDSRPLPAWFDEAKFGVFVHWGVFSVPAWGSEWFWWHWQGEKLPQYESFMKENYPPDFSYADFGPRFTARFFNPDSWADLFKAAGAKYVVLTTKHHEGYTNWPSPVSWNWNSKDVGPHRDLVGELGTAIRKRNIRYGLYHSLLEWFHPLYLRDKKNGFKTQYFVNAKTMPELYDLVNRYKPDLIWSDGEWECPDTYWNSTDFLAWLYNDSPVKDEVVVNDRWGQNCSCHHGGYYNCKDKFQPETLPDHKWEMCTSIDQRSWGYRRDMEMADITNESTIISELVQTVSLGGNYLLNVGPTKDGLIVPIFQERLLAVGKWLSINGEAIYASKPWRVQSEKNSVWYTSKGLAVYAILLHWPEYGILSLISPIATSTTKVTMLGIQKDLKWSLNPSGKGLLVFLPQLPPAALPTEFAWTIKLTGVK
Procedure: This Test Example is a test example for determining the α-fucosidase-inhibitory activity of the compound of the general formula (I) according to this invention.
Assay of the α-fucosidase-inhibitory activity was conducted according to a modification of the method described in the “Journal of Biological Chemistry”, 252, pp.5194-5200 (1977).
(§1) Thus, 0.5 mL of 0.025M citrate-phosphate buffer (pH 6.3), 0.1 mL of the same buffer containing 1.5 mM p-nitrophenyl α-L-fucopyranoside dissolved therein, and 0.1 mL of either water or an aqueous solution containing as the tested compound any one of the compounds of the formulae (Ia), (Ib), (Ic) and (Id) according to this invention were mixed with each other and pre-incubated in a 96-well titer plate at 37° C. for 10 minutes. After the completion of the pre-incubation, to the pre-incubated mixture was added 0.01 mL of 0.025M citrate-phosphate buffer containing α-L-fucosidase (a product of Sigma Company, originated from bovine liver) dissolved therein, and thereafter the enzymatic reaction was conducted at 37° C. for 60 minutes. After the enzymatic reaction, to the resulting reaction solution was added 1.0 mL of 0.2M glycine-sodium hydroxide buffer (pH 10.5), in order to terminate the enzymatic reaction. Thereafter, the absorbance (designated as “a”) of light at 405 nm of the resulting reaction solution was measured. Concurrently, measurement was made of the absorbance (designated as “b”) of light at 405 nm of the reaction solution as obtained in the control test where the enzymatic reaction was conducted without addition of the test compound. Further, measurements were made of the absorbance (designated as “a′”) and the absorbance (designated as “b′”) of light at 405 nm of the reaction solutions as obtained in the blank tests where the enzymatic reaction had not been conducted in the assay test, and also in the control test for the blank tests, respectively.
(§2) The rate of inhibition to α-L-fucosidase was calculated by the equation: […]

[2] = molecular target: β-D-glucosidase (from almonds); experiment: β-glucosidase-inhibitory activity assay (Test Example 2); type: biochemical, almond; conditions: substrate p-nitrophenyl β-D-glucoside, same manner as Test Example 1
Procedure: as §1, §2
This Test Example is a test example for determining the α-glucosidase or β-glucosidase-inhibitory activity of the compounds according to this invention.
The evaluation of the α- or β-glucosidase-inhibitory activity was conducted according to a modification of the method described in the “Agricultural and Biological Chemistry”, 26, p.203 (1962). Namely, the test was conducted in the same manner as the test for the enzyme-inhibitory activity described in Test Example 1, except that either α-glucosidase originated from yeast, or β-glucosidase originated from almond (both enzymes are products of Sigma Company) was used as the glycosidase enzyme, and that p-nitrophenyl α-D-glucoside or p-nitrophenyl β-D-glucoside was used as the substrate. Furthermore, the enzyme-inhibitory activity was measured in the same manner as in Test Example 1, and the 50% inhibitions of the tested compounds against the enzymes were calculated, respectively.

Row | IC50 [1] [nM] | 50% Inhibiory Concentration (IC50) Enzyme C [2] [µg/mL] | Structure (SMILES)
1 | 12.4 | 55 | C[C@@H]1CN[C@@H](NC(=O)C(F)(F)F)[C@H](O)[C@@H]1O [Compound of the Formula (Ib), (2S,3S,4R,5R)-2-trifluoroacetamido-5-methyl-piperidine-3,4-diol]
2 | 14.5 | 60 | C[C@@H]1CN[C@@H](N2C(=O)c3ccccc3C2=O)[C@H](O)[C@@H]1O [Compound of the Formula (Id), (2S,3S,4R,5R)-2-phthalimido-5-methylpiperidine-3,4-diol]
3 | 20.5 | 50 | C[C@@H]1CN[C@@H](N)[C@H](O)[C@@H]1O [Compound of the Formula (Ie), (2R,3S,4R,5R)-2-amino-5-methylpiperidine-3,4-diol]
4 | 584 | 2.3 | CC(=O)N[C@@H]1NC[C@@H](C)[C@@H](O)[C@H]1O [Compound of the Formula (Ia), (2S,3S,4R,5R)-2-acetamido-5-methylpiperidine-3,4-diol]

Row | Structure (SMILES) | IC50 [1] [nM] | 50% Inhibiory Concentration (IC50) Enzyme C [2] [µg/mL]
5 | C[C@@H]1CN[C@@H](NC(=O)C(Cl)(Cl)Cl)[C@H](O)[C@@H]1O [Compound of the Formula (Ic), (2S,3S,4R,5R)-2-trichloroacetamido-5-methyl-piperidine-3,4-diol] | 10.3 | 50
